Active and inactive are the calls of the source. The rule behind the calls is not given here.
Key:
CDK9/cyclin T1 = CDK9/cyclin T1 (Homo sapiens, UniProt P50750); assay: Inhibition of CDK9/Cyclin T1 (unknown origin) preincubated with enzyme for 10 mins followed by substrate and ATP addition measured after 60 mins by ADP-Glo reagent based assay; format: protein-complex assay
[1] = biological target: Glycogen synthase kinase-3 beta (Homo sapiens, UniProt P49841); assay: Inhibition of GSK-3beta (unknown origin) preincubated with enzyme for 10 mins followed by substrate and ATP addition measured after 60 mins by ADP-Glo reagent based assay
[2] = Metabolic stability in human plasma assessed as half life at 2 uM incubated upto 60 mins […] by LC-MS/MS analysis; format: ADME, cell-free
[3] = Apparent permeability across basolateral to apical side in dog MDCK-MDR1 cells at 5 uM incubated for 90 mins by LC-MS/MS analysis; format: ADME, cell-based, Canis lupus familiaris
CYP2C19 = CYP2C19 (Homo sapiens, UniProt P33261); assay: Inhibition of CYP2C19 in human liver microsomes using mephenytoin as substrate at 10 uM preincubated for 10 mins followed by NADPH addition and measured after 40 mins by LC-MS/MS analysis relative to control; format: ADME, Microsome; details: probe mephenytoin, time 50 min
CYP2E1 = CYP2E1 (Homo sapiens, UniProt P05181); assay: Inhibition of CYP2E1 in human liver microsomes using chlorzoxazone as substrate at 10 uM preincubated for 10 mins followed by NADPH addition and measured after 40 mins by LC-MS/MS analysis relative to control; details: probe chlorzoxazone
[4] = MRT (0 to t) in Sprague-Dawley rat at 10 mg/kg,po measured upto 24 hrs by LC-MS/MS analysis; format: ADME, organism-based; details: in vivo
[5] = Half life in Sprague-Dawley rat at 2 mg/kg,iv measured upto 24 hrs by LC-MS/MS analysis; format: ADME, organism-based; details: in vivo
[6] = Cmax in Sprague-Dawley rat at 2 mg/kg,iv measured upto 24 hrs by LC-MS/MS analysis; format: ADME, organism-based; details: in vivo
[7] = Cmax in Sprague-Dawley rat at 10 mg/kg,po measured upto 24 hrs by LC-MS/MS analysis; format: ADME, organism-based; details: in vivo
[8] = Clearance in Sprague-Dawley rat at 2 mg/kg,iv measured upto 24 hrs by LC-MS/MS analysis; format: ADME, organism-based; details: in vivo
[9] = Apparent volume of distribution in Sprague-Dawley rat at 2 mg/kg,iv measured upto 24 hrs by LC-MS/MS analysis; format: ADME, organism-based; details: in vivo, read-out: Vz
[10] = Oral bioavailability in Sprague-Dawley rat at 10 mg/kg measured upto 24 hrs by LC-MS/MS analysis; format: ADME, organism-based; details: in vivo
[11] = Drug concentration in Sprague-Dawley rat brain at 10 mg/kg,po measured after 1 hr by LC-MS/MS analysis; format: ADME, organism-based; details: read-out: Ct
[12] = Drug concentration in Sprague-Dawley rat brain at 10 mg/kg,po measured after 2 hrs by LC-MS/MS analysis; format: ADME, organism-based; details: read-out: Ct
[13] = Drug concentration in Sprague-Dawley rat brain at 10 mg/kg,po measured after 4 hrs by LC-MS/MS analysis; format: ADME, organism-based; details: read-out: Ct
[14] = biological target: Dual specificity tyrosine-phosphorylation-regulated kinase 1B (Homo sapiens, UniProt Q9Y463); assay: Inhibition of DYRK1B (unknown origin) preincubated with enzyme for 10 mins followed by substrate and ATP addition measured after 60 mins by ADP-Glo reagent based assay
[15] = biological target: Dual specificity tyrosine-phosphorylation-regulated kinase 2 (Homo sapiens, UniProt Q92630); assay: Inhibition of DYRK2 (unknown origin) preincubated with enzyme for 10 mins followed by substrate and ATP addition measured after 60 mins by ADP-Glo reagent based assay
[16] = biological target: Dual specificity protein kinase CLK3 (Homo sapiens, UniProt P49761); assay: Inhibition of CLK3 (unknown origin) preincubated with enzyme for 10 mins followed by substrate and ATP addition measured after 60 mins by ADP-Glo reagent based assay
[17] = biological target: Dual specificity protein kinase CLK4 (Homo sapiens, UniProt Q9HAZ1); assay: Inhibition of CLK4 (unknown origin) preincubated with enzyme for 10 mins followed by substrate and ATP addition measured after 60 mins by ADP-Glo reagent based assay
HEK-293T = assay: Cytotoxicity against human HEK293T cells expressing human Tau P301L mutant at 0.15625 to 10 uM incubated for 24 hrs by MTT assay; format: toxicity, cell-based; details: dose 0.15625-10 µM
SH-SY5Y = assay: Cytotoxicity against human SH-SY5Y cells expressing human Tau P301L mutant at 20 uM incubated for 24 hrs by MTT assay; format: functional, cell-based
[18] = Acute toxicity in C57BL/6 mouse assessed as animal death at 500 mg/kg,po observed after 14 days; format: organism-based; details: in vivo, 336 h, time 14 day
[19] = Acute toxicity in C57BL/6 mouse assessed as change in spleen weight at 500 mg/kg,po observed after 14 days; format: organism-based; details: in vivo, 336 h, time 14 day
[20] = Acute toxicity in C57BL/6 mouse assessed as change in lung weight at 500 mg/kg,po observed after 14 days; format: organism-based; details: in vivo, 336 h, time 14 day
[21] = Acute toxicity in C57BL/6 mouse assessed as histopathological change in heart at 500 mg/kg,po observed after 14 days by hematoxylin-eosin staining based analysis; format: organism-based; details: in vivo, 336 h, time 14 day
[22] = Acute toxicity in C57BL/6 mouse assessed as histopathological change in liver at 500 mg/kg,po observed after 14 days by hematoxylin-eosin staining based analysis; format: organism-based; details: in vivo, 336 h, time 14 day
[23] = Acute toxicity in C57BL/6 mouse assessed as histopathological change in lung at 500 mg/kg,po observed after 14 days by hematoxylin-eosin staining based analysis; format: organism-based; details: in vivo, 336 h, time 14 day
Mus musculus [24] = assay: Antialzheimer activity in okadaic acid-induced cognitive impairment C57BL/6 mouse assessed as change in swimming speed at 10 to 30 mg/kg,po once daily for 2 weeks by Morris water maze test; format: functional, organism-based; details: dose 10-30 mg/kg
Mus musculus [25] = assay: Antialzheimer activity in okadaic acid-induced cognitive impairment C57BL/6 mouse assessed as decrease in escape latency at 10 to 30 mg/kg,po once daily for 2 weeks by Morris water maze test; format: functional, organism-based; details: dose 10-30 mg/kg
Mus musculus [26] = assay: Antialzheimer activity in okadaic acid-induced cognitive impairment C57BL/6 mouse assessed as reduction in nerve damage in hippocampal CA1 region at 10 to 30 mg/kg,po once daily for 2 weeks by Nissl staining based microscopy; format: functional, organism-based; details: dose 10-30 mg/kg
[27] = Toxicity in okadaic acid-induced cognitive impairment C57BL/6 mouse assessed as change in body weight at 10 to 30 mg/kg,po once daily for 2 weeks; format: organism-based; details: in vivo, 336 h, dose 10-30 mg/kg
[28] = Toxicity in okadaic acid-induced cognitive impairment C57BL/6 mouse assessed as change in serum AST level at 10 to 30 mg/kg,po once daily for 2 weeks; format: organism-based; details: in vivo, 336 h, dose 10-30 mg/kg
[29] = Toxicity in okadaic acid-induced cognitive impairment C57BL/6 mouse assessed as change in serum ALT level at 10 to 30 mg/kg,po once daily for 2 weeks; format: organism-based; details: in vivo, 336 h, dose 10-30 mg/kg
[30] = Toxicity in okadaic acid-induced cognitive impairment C57BL/6 mouse assessed as change in serum BUN level at 10 to 30 mg/kg,po once daily for 2 weeks; format: organism-based; details: in vivo, 336 h, dose 10-30 mg/kg
[31] = Toxicity in okadaic acid-induced cognitive impairment C57BL/6 mouse assessed as change in serum CRE level at 10 to 30 mg/kg,po once daily for 2 weeks; format: organism-based; details: in vivo, 336 h, dose 10-30 mg/kg

Dual specificity protein kinase CLK4, sequence (Q9HAZ1 whole entry): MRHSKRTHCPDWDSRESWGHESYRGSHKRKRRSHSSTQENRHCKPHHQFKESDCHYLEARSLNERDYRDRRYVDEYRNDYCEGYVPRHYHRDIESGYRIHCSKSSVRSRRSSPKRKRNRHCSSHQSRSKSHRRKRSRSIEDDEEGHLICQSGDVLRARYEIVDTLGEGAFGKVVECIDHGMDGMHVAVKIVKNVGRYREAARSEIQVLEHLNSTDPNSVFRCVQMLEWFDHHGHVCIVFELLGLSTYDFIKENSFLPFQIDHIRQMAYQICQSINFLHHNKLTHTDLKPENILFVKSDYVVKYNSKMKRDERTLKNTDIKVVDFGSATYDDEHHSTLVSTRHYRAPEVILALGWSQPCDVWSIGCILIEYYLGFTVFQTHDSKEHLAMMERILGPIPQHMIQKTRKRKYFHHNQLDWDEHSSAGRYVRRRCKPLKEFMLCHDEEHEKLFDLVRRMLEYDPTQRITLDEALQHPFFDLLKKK
CYP2E1, sequence (P05181 whole entry): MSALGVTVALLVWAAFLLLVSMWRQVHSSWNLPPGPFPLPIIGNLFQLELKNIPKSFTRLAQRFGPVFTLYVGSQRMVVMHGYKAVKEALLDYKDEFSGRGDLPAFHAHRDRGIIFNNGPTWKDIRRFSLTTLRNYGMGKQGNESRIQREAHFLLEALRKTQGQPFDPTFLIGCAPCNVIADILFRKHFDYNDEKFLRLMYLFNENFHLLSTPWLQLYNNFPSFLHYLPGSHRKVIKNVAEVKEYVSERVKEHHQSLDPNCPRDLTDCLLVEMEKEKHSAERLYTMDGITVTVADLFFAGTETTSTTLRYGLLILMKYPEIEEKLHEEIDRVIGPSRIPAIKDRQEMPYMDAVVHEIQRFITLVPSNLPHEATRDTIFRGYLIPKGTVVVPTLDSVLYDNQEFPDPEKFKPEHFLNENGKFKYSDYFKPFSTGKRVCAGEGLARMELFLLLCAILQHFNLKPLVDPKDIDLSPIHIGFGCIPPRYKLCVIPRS
Glycogen synthase kinase-3 beta, sequence (P49841 whole entry): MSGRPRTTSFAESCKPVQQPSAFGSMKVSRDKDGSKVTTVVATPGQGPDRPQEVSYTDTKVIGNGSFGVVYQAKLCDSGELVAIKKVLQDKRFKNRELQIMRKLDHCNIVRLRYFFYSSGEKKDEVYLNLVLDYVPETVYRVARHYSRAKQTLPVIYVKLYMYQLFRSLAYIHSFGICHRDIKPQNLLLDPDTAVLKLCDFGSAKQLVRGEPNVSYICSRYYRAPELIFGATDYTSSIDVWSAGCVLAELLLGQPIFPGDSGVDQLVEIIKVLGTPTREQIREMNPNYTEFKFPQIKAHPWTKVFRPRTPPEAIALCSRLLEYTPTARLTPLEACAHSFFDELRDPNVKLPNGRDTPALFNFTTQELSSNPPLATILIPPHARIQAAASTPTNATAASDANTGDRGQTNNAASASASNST
CYP2C19, sequence (P33261 whole entry): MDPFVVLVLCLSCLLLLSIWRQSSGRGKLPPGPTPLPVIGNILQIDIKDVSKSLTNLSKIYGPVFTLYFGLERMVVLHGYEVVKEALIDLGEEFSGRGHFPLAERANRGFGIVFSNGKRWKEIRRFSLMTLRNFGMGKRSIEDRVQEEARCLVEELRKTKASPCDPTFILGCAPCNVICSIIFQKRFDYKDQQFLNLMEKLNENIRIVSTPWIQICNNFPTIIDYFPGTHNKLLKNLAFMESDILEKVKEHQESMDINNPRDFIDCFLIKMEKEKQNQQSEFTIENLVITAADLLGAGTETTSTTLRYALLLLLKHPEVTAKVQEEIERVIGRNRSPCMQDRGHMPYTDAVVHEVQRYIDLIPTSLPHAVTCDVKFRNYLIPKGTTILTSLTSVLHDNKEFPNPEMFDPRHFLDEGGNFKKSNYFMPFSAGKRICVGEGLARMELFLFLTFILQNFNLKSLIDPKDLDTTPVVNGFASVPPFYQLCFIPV
Dual specificity protein kinase CLK3, sequence (P49761 whole entry): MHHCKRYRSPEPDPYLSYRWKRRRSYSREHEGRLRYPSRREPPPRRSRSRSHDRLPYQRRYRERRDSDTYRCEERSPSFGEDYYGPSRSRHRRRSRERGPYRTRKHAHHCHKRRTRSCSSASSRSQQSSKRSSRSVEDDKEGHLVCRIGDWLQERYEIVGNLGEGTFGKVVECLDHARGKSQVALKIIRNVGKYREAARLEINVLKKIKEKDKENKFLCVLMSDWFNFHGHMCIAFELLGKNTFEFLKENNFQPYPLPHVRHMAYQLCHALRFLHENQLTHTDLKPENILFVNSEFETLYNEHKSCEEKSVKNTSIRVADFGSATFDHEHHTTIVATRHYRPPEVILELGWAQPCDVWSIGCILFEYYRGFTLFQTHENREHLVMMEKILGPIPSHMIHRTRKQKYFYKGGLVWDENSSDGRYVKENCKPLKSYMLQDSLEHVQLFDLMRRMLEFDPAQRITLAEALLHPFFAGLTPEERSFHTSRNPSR
CDK9/cyclin T1, sequence (O60563 whole entry): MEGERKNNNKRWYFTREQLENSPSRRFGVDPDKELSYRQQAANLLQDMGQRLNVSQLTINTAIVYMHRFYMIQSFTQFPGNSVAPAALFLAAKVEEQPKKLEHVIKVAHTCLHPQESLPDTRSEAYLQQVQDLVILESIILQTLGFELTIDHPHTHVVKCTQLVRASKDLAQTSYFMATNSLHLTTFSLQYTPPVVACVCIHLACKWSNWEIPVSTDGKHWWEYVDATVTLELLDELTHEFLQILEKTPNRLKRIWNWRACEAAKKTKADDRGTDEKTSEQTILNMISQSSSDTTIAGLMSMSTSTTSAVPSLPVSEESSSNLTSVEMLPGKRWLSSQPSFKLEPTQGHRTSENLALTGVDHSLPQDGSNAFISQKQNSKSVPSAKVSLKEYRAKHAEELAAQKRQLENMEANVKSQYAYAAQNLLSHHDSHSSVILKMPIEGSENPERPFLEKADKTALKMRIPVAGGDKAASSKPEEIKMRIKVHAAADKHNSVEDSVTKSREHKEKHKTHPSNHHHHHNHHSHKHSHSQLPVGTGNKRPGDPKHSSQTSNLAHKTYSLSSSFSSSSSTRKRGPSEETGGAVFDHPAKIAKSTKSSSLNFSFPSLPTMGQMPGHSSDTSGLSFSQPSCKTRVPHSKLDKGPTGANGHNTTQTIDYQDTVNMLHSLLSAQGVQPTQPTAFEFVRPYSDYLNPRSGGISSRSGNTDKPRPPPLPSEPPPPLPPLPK
CDK9/cyclin T1, sequence (P50750 whole entry): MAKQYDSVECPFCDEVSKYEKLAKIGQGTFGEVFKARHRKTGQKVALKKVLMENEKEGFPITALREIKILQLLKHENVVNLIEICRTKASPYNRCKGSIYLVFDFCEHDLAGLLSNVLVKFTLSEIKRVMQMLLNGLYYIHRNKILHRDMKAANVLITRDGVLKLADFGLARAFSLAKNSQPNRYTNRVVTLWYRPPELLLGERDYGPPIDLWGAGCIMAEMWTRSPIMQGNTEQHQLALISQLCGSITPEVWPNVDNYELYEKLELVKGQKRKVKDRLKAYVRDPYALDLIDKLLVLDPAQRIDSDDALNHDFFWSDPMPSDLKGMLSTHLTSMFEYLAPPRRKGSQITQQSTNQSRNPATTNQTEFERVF
Dual specificity tyrosine-phosphorylation-regulated kinase 1B, sequence (Q9Y463 whole entry): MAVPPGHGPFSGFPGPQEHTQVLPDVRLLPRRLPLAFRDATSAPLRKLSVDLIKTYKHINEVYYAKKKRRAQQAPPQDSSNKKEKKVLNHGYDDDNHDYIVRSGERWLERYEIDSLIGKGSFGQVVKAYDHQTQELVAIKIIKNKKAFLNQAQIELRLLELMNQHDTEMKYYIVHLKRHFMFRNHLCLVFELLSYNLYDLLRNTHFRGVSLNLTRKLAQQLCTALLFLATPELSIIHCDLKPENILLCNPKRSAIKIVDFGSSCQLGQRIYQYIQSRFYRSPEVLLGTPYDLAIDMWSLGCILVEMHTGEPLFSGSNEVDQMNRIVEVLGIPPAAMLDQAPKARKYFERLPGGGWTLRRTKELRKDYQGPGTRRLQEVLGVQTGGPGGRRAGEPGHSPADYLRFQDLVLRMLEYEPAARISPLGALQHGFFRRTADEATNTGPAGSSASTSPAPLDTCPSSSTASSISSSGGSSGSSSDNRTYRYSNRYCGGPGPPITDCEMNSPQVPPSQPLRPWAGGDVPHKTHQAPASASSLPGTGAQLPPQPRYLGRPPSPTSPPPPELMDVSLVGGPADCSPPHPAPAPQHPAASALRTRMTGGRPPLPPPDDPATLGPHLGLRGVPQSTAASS
Dual specificity tyrosine-phosphorylation-regulated kinase 2, sequence (Q92630 whole entry): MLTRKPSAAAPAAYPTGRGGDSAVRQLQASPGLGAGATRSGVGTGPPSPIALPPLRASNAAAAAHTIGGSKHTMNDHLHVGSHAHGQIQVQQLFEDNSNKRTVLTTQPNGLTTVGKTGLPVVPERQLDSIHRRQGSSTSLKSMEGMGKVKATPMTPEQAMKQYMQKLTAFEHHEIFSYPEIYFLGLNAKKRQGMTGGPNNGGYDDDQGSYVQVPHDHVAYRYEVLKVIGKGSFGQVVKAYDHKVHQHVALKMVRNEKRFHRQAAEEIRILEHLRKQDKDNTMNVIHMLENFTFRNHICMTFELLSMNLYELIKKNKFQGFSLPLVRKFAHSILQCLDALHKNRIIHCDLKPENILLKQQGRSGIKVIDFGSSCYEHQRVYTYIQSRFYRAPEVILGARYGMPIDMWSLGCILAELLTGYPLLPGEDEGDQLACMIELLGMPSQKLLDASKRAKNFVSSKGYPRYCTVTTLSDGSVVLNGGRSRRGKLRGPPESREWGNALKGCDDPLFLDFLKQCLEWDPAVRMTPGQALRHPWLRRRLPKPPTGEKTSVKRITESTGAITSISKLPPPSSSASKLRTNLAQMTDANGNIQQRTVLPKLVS

Compound: Cc1ccc2c(-c3ccc4ncnc(N[C@H](CO)c5ccccc5)c4c3)c[nH]c2n1
- IC50 (CDK9/cyclin T1): > 10 µM
- IC50 [1]: 1420 nM
- half-life at 2 µM [2]: > 200 min
- Papp B→A at […], 5 µM [3]: 30.6 ×10⁻⁶ cm/s
- inhibition at 40 min, 10 µM (CYP2C19): 96.9%
- inhibition at 40 min, 10 µM (CYP2E1): 0.07%
- MRT last at 24 h [4]: 5.77 h
- half-life [5]: 177 min
- Cmax [6]: 272 ng/mL
- Cmax [7]: 230 ng/mL
- clearance [8]: 23.7 mL/min/kg
- Vd [9]: 5.82 L/kg
- bioavailability [10]: 39.7%
- concentration at 1 h [11]: 26.9 ng/g
- concentration at 2 h [12]: 16.8 ng/g
- concentration at 4 h [13]: 39.1 ng/g
- IC50 [14]: 1.02 nM
- IC50 [15]: 14.2 nM
- IC50 [16]: 38.9 nM
- IC50 [17]: 38.9 nM
- Activity (HEK-293T): Non-Toxic
- Activity (SH-SY5Y): Active
- Activity [18]: Non-Toxic
- Activity [19]: Non-Toxic
- Activity [20]: Non-Toxic
- Activity [21]: Non-Toxic
- Activity [22]: Non-Toxic
- Activity [23]: Non-Toxic
- Activity (Mus musculus [24]): inactive
- Activity (Mus musculus [25]): Active
- Activity (Mus musculus [26]): Active
- Activity [27]: Non-Toxic
- Activity [28]: Non-Toxic
- Activity [29]: Non-Toxic
- Activity [30]: Non-Toxic
- Activity [31]: Non-Toxic

From ChEMBL document CHEMBL5550204, “Discovery of ZJCK-6-46: A Potent, Selective, and Orally Available Dual-Specificity Tyrosine Phosphorylation-Regulated Kinase 1A Inhibitor for the Treatment of Alzheimer's Disease” (J Med Chem, 2024)
